Measured values from publication PMC12302426, “Dihydrokoumine, a dual-target analgesic with reduced side effects isolated from a traditional Chinese medicine” (Journal of Advanced Research, 2024).

Experiments:
HEK293 cells = assay: DMR assay in untransfected HEK293 cells (background); assay type: cell-based; conditions: HEK293 cells without MOR
Method: (§1) DMR assays were performed using an Epic® BT system (Corning, NY, USA). All used cell lines were directly seeded in Epic 384-well biosensor microplates with a seeding density of 25,000 cells per well. After being cultured for about 22 h, the cells formed a monolayer with a confluency of about 95 % in the cell culture medium. Then the cells were manually washed using assay buffer (1 × HBSS buffer, 10 mM HEPES, pH = 7.4) and maintained in 30 μL of the assay buffer for 1 h. All samples were dissolved in DMSO and diluted freshly with the assay buffer containing 0.1 % BSA.
The DMR assays were conducted as follows. […] In the case of the DMR desensitization assay, cells were pretreated with analytes for one hour before introducing a specific agonist at the indicated concentration, and the agonist-induced DMR signals were monitored for one hour. Finally, for the DMR antagonist assay, cells underwent a 1-hour pretreatment with an antagonist before the addition of a specific agonist at the indicated concentration, and subsequent DMR signals were recorded over one hour.

mu opioid receptor (MOR) = target: T1, mu opioid receptor (MOR) (Homo sapiens, UniProt P35372); assay: FLIPR Ca2+ assay in HEK293T-Mu cells; assay type: cell-based
T1 construct: expressed in transfected cells; host or cells: HEK293T-Mu
T1 sequence (P35372 whole entry): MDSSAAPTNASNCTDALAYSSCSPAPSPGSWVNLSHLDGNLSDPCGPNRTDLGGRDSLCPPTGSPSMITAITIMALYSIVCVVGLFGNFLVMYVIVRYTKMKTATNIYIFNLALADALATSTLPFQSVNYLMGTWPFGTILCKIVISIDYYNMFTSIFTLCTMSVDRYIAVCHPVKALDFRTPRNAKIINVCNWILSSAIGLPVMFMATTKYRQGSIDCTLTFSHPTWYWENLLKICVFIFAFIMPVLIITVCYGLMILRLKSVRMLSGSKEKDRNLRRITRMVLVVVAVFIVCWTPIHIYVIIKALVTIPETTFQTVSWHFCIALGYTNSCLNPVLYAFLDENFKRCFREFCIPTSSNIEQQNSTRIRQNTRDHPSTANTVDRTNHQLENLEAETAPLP
Method: (§2) FLIPR assay was carried out as reported earlier. Cell lines were seeded in 96-well plates with black walls (Greiner, USA) at 8.0 × 10^4 cells per well. After approximately 22 h of incubation, the cells were exposed to Calcium-6 dye (Molecular Devices, USA) in HBSS buffer supplemented with 20 mM HEPES (pH 7.4) at 37°C for one hour. Samples, redissolved in DMSO and housed in 96-well drug plates, underwent dilution with FLIPR buffer and subsequent automated introduction to the cells. […] In FLIPR antagonist experiments, cells were pre-incubated with the compound for 10 min prior to introducing a specified concentration of agonist. Results were presented as fluorescence (arbitrary units) plotted against time.

M1R = target: T2, M1R (Homo sapiens, UniProt P11229); assay: FLIPR assay in CHO-M1 cells (carbachol-induced Ca2+); assay type: cell-based; conditions: DK pretreatment one hour
T2 construct: expressed in transfected cells
T2 sequence (P11229 whole entry): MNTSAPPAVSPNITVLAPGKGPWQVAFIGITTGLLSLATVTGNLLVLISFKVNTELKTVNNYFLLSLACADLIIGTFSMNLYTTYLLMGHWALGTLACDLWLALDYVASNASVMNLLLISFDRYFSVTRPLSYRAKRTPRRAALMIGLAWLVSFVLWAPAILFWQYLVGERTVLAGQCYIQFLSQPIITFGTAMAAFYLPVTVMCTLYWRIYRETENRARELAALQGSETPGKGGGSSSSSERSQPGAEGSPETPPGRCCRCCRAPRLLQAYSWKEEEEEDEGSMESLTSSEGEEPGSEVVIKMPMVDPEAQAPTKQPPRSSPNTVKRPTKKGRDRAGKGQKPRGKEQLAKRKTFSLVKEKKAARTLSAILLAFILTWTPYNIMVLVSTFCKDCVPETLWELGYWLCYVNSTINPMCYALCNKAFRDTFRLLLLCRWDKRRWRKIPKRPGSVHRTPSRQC
Method: as §2, with “In FLIPR antagonist experiments, cells were pre-incubated with the compound for 10 min prior to introducing a specified concentration of agonist.” left out

M4R = target: T3, M4R (Homo sapiens, UniProt P08173); assay: FLIPR assay in HEK293-M4 cells (carbachol-induced Ca2+); assay type: cell-based; conditions: DK pretreatment one hour
T3 construct: expressed in transfected cells
T3 sequence (P08173 whole entry): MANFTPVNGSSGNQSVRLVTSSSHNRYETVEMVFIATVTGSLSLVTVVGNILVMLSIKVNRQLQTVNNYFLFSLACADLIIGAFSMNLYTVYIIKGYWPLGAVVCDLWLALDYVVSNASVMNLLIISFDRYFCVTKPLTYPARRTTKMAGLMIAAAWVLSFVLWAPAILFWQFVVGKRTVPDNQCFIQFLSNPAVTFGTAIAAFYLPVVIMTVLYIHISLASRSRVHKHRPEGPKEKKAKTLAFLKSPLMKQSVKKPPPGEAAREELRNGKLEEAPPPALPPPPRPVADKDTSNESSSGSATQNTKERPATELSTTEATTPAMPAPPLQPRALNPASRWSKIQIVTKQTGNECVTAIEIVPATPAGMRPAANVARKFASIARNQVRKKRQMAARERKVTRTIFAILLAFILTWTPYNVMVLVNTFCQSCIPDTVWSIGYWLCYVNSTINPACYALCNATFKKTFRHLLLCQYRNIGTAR
Method: as §2, with “In FLIPR antagonist experiments, cells were pre-incubated with the compound for 10 min prior to introducing a specified concentration of agonist.” left out

histamine receptor H1 = target: T4, histamine receptor H1 (Homo sapiens, UniProt P35367); assay: DMR desensitization assay, A431, probe histamine; assay type: cell-based; conditions: 100 μM DK
T4 construct: endogenous in cells; host or cells: A431
T4 sequence (P35367 whole entry): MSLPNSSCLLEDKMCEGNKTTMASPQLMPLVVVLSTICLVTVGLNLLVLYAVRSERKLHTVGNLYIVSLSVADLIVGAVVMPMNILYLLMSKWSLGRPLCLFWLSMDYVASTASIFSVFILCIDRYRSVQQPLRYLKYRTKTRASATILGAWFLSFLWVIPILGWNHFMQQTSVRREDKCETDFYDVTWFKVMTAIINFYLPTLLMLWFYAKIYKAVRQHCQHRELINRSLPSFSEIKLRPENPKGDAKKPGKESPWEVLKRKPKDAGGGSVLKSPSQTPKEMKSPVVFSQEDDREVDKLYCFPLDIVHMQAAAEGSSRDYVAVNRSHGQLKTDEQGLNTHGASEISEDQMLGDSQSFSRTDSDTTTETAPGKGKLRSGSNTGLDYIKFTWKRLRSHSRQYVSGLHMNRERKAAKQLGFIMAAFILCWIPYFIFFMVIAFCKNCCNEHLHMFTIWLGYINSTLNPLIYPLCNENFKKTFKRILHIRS
Method: as §1
The receptor selectivity was evaluated against a set of G protein-coupled receptors (GPCRs), including opioid receptor (Delta/Kappa/NOP), dopamine receptor (D1/D2), orphan receptor (GPR35), adrenergic receptor (α2A/β2), serotonin receptor (5HT2A), histamine receptor (H1) and cannabinoid receptor (CB1). Following a 1-hour pretreatment with DK, a 2-min baseline was established before introducing probes and monitoring DMR signals for another hour. The cells and probes were as follows: Delta, HEK293-Delta, SNC162; Kappa, HEK293-Kappa, ICI199441; NOP, HEK293-NOP, MCOPPB; D1, HEK293-D1, dopamine; D2, HEK293-D2, dopamine; GPR35, CHO-K1-hGPR35, zaprinast; 5HT2A, HEK293-5HT2A, 5-hydroxytryptamine; α2A, HEK293-α2A, L-Noradrenaline; β2, A431, isoprenaline; H1, A431, histamine; CB1, CHO-K1-CB1, CP 55940. […]

HUVEC cells = assay: Cytotoxicity assay (CCK-8), HUVEC; assay type: cell-based; conditions: 24 h
Method: HEK293T, CHO, and HUVEC cell lines were cultured overnight in 96-well plates before exposure to compounds for 24 h. Cell viability was evaluated using the Cell Counting Kit-8 (CCK-8, Beyotime Biotechnology, China), and absorbance at 450 nm was measured with a microplate reader. Cell survival rates were calculated relative to control conditions.

[1] = Pharmacokinetics, oral bioavailability; assay type: in vivo, SD male rats; conditions: rats, 20 mg/kg (method)
Method: Oral bioavailability evaluation was as follows. SD male rats (about 250 g) were used in bioavailability evaluation (n = 3). […] were given a single dose of DK (20 mg/kg, 5 mL/kg, […].) through intragastric administration or tail vein injection. Blood (300 μL) was collected at 0.083, 0.167, 0.25, 0.5, 1, 2, 4, 6, 8, and 10 h, into EDTA tubes. Plasma was obtained by mixing with acetonitrile and centrifugation (3000 r/min, 10 min).
(§3) Brain and plasma drug levels were measured by LC-30AD (Shimadzu Corporation Kyoto, Japan) and SCIEX QTRAP-6500 (AB Sciex, Foster City, CA, USA) and calculated by comparing with internal standard (koumine, 200 ng/mL). The used column was Waters ACQUITY UPLC BEH C18 (2.1*150 mm, 1.7 μm); the mobile phase was composed of (A) 0.1 % FA in water and (B) 0.1 % FA in ACN; the elution gradient was 20 % B (0–3 min), 20–40 % B (3–5 min), 40–95 % B (5–6 min); the flow rate was 0.3 mL/min; and detection was in the positive mode.

[2] = Pharmacokinetics, blood-brain barrier permeability; assay type: in vivo, C57BL/6 male mice
Method: Blood‐brain barrier permeability evaluation was as follows. C57BL/6 male mice (about 25 g) were used in evaluation of blood‐brain barrier permeability (n = 3). Mice were given a single dose of DK (20 mg/kg, 5 mL/kg, i.p.) through intraperitoneal injection. Blood (300 μL) was collected at 0.167, 0.5, 1, 2, 3 and 4 h into EDTA tubes. Plasma was obtained by mixing with acetonitrile and centrifugation (3000 r/min, 10 min). Meanwhile, brains were excised after saline perfusion at these time points. Brain samples were grinded (70 Hz, 90 s) and sonicated (30 s) to break up the tissue, followed by centrifugation (15,000 r/min, 10 min, […]) to obtain brain sample.
as §3

Question: What does the source list for `C=CC12CN(C)C3CC14c1ccccc1NC4C1CC2C3CO1` (centres unmarked) [DK]?
Answer: background DMR response (HEK293 cells): No background response; Ca2+ response after naloxone pretreatment (mu opioid receptor (MOR); 100 μM DK): significantly decreased by naloxone; maximum Ca2+ response compared with endomorphin-1 (mu opioid receptor (MOR); FLIPR): less than half of the maximum Ca^2+ response of endomorphin-1; inhibition of carbachol-induced Ca2+ response (M1R): could not concentration-dependently inhibit; inhibition of carbachol-induced Ca2+ response (M4R): could not concentration-dependently inhibit; reduction of probe DMR response (desensitization) (histamine receptor H1): almost unable to reduce the response; cytotoxicity (cell viability) (HUVEC cells): noncytotoxic; AUC ([1]; male, SD (Sprague-Dawley), rat, iv, plasma, i.v., read-out: (AUC)0-12 h, intravenous injection): 902 ng·h/mL; bioavailability ([1]; male, SD (Sprague-Dawley), rat, plasma, oral, i.g. vs i.v.): 42.6%; AUC ([1]; male, SD (Sprague-Dawley), rat, po, plasma, i.g., read-out: (AUC)0-12 h, intragastric administration): 384 ng·h/mL; time of highest plasma concentration ([1]; intragastric (i.g.) administration): 15 min; Kp ([2]; male, C57BL/6, mouse, brain/plasma, ip, 20 mg/kg, read-out: Kp (AUCbrain/AUCplasma)): 1.27; AUC ([2]; male, C57BL/6, mouse, ip, mice, plasma, i.p., 20 mg/kg (method), read-out: (AUC)0-4 h in plasma): 733 ng·h/mL; (AUC)0-4 h in brain ([2]; mice, brain, i.p., 20 mg/kg (method)): 933.4 ng·h/g
